The results in this text go back to US9204653B2, “5-fluoro pyrimidine derivatives” (DOW AGROSCIENCES LLC, priority 2008, dated 2015).

The subject of this assay is Mycosphaerella graminicola; Anamorph: Septoria tritici; Bayer Code SEPTTR. Nature of the assay: Leaf blotch of wheat, foliar fungicide treatment, one day protectant (1DP) or three day curative (3DC). To be noted: Zymoseptoria tritici. It is filed as in vivo, Septoria tritici on wheat plants (variety Yuma).
Where [1] appears, read: 24 h, one day protectant (1DP), percent disease control rating, read-out: SETTTR 1DP 25 ppm.
Setting [2] is: 24 h, one day protectant (1DP), percent disease control rating, read-out: SEPTTR 1DP 100 ppm.
The mark [3] stands for this setting: 72 h, three day curative (3DC), percent disease control rating, read-out: SEPTTR 3DC 25 ppm.
Where [4] appears, read: 72 h, three day curative (3DC), percent disease control rating, read-out: SEPTTR 3DC 100 ppm.
Where [5] appears, read: 24 h, one day protectant (1DP), rating of percent disease control, read-out: SETTTR 1DP 25 ppm.
Where [6] appears, read: 24 h, one day protectant (1DP), rating of percent disease control, read-out: SEPTTR 1DP 100 ppm.
Setting [7] is: 72 h, three day curative (3DC), rating of percent disease control, read-out: SEPTTR 3DC 25 ppm.
[8] abbreviates: 72 h, three day curative (3DC), rating of percent disease control, read-out: SEPTTR 3DC 100 ppm.

Like-named read-outs stand apart in the source and are kept apart here.

For the compound `CCOC(=O)COC(=O)Nc1nc(OCc2ccc(C)cc2)ncc1F` [Compound 176], the pest or weed control at 25 ppm under setting [1] was 51 to 75% and the pest or weed control at 25 ppm under setting [3] was in the range of 76 to 100%. Also, the pest or weed control at 100 ppm reads like this: under setting [2], 76 to 100%; under setting [4], 76 to 100%.
As for `N#Cc1cccc(COc2ncc(F)c(/N=C/N3CCOCC3)n2)c1` [Compound 177], the pest or weed control at 25 ppm reads like this: under setting [1], 76 to 100%; under setting [3], 76 to 100%. Besides, the pest or weed control at 100 ppm by setting is: under setting [2], 76 to 100%; under setting [4], 76 to 100%.
Take `Nc1nc(OCc2ccc3c(c2)OCO3)ncc1F` [Compound 178]: the pest or weed control at 25 ppm was 76 to 100% under setting [1] and 76 to 100% under setting [3]. Further, the pest or weed control at 100 ppm runs as follows: under setting [2], 76 to 100%; under setting [4], 76 to 100%.
Regarding `CC(=O)Nc1nc(OCc2ccc(C)cc2)ncc1F` [Compound 179], the pest or weed control at 25 ppm is 76 to 100% under setting [1] and 76 to 100% under setting [3]. Also, the pest or weed control at 100 ppm by setting is: under setting [2], 76 to 100%; under setting [4], 76 to 100%.
`Nc1nc(O/N=C2\CCc3ccccc32)ncc1F` [Compound 181]: the pest or weed control at 25 ppm under setting [1] fell in the range of 76 to 100% and the pest or weed control at 25 ppm under setting [3] lay in the range of 76 to 100%. In addition, the pest or weed control at 100 ppm was 76 to 100% under setting [2] and 76 to 100% under setting [4].
`CNC(=S)Nc1nc(OCc2ccc(C)cc2)ncc1F` [Compound 182]: the pest or weed control at 25 ppm lay in the range of 76 to 100% under setting [5] and 76 to 100% under setting [7]. Further, the pest or weed control at 100 ppm reads like this: under setting [6], 76 to 100%; under setting [8], 76 to 100%.
With `N#Cc1cccc(COc2ncc(F)c(NC(=O)NCc3ccccc3)n2)c1` [Compound 183], the pest or weed control at 25 ppm by setting is: under setting [5], 0 to 25%; under setting [7], 0 to 25%. Moreover, the pest or weed control at 100 ppm runs as follows: under setting [6], 0 to 25%; under setting [8], 0 to 25%.
On to `Nc1nc(OCc2ccc(C(F)(F)F)nc2)ncc1F` [Compound 184], for which the pest or weed control at 25 ppm under setting [5] was in the range of 76 to 100% and the pest or weed control at 25 ppm under setting [7] is 51 to 75%. The pest or weed control at 100 ppm was in the range of 76 to 100% under setting [6] and 76 to 100% under setting [8].
As to `COc1cc(F)c(COc2ncc(F)c(N)n2)cn1` [Compound 185], the pest or weed control at 25 ppm under setting [5] lay within 76 to 100% and the pest or weed control at 25 ppm under setting [7] was in the range of 76 to 100%. For the same compound, the pest or weed control at 100 ppm under setting [6] was in the range of 76 to 100% and the pest or weed control at 100 ppm under setting [8] is 76 to 100%.
Take `CCCNC(=O)Nc1nc(OCc2ccc(F)cc2)ncc1F` [Compound 186]: the pest or weed control at 25 ppm is, setting by setting: under setting [5], 51 to 75%; under setting [7], 0 to 25%. For the same compound, the pest or weed control at 100 ppm reads like this: under setting [6], 51 to 75%; under setting [8], 0 to 25%.
For `Cc1cccc(COc2ncc(F)c(N)n2)c1` [Compound 188], the pest or weed control at 25 ppm reads like this: under setting [5], 76 to 100%; under setting [7], 76 to 100%. The pest or weed control at 100 ppm was 76 to 100% under setting [6] and 76 to 100% under setting [8].
As to `COc1cccc(COc2ncc(F)c(NC(=O)c3ccccc3)n2)c1` [Compound 191], the pest or weed control at 25 ppm is 76 to 100% under setting [5] and 76 to 100% under setting [7]. Also, the pest or weed control at 100 ppm is, setting by setting: under setting [6], 76 to 100%; under setting [8], 76 to 100%.
As to `CC(=O)OC[C@H]1O[C@@H](Oc2ncc(F)c(N)n2)[C@H](OC(C)=O)[C@@H](OC(C)=O)[C@@H]1OC(C)=O` [Compound 192], the pest or weed control at 25 ppm is, setting by setting: under setting [5], 76 to 100%; under setting [7], 51 to 75%. Besides, the pest or weed control at 100 ppm under setting [6] lay in the range of 76 to 100% and the pest or weed control at 100 ppm under setting [8] fell in the range of 76 to 100%.
In the case of `Nc1nc(OCc2ccc(OCc3ccccc3)cc2)ncc1F` [Compound 193], the pest or weed control at 25 ppm under setting [5] was 76 to 100% and the pest or weed control at 25 ppm under setting [7] was 76 to 100%. For the same compound, the pest or weed control at 100 ppm reads like this: under setting [6], 76 to 100%; under setting [8], 76 to 100%.
For the compound `Nc1nc(OCc2c(F)cc(F)cc2F)ncc1F` [Compound 194], the pest or weed control at 25 ppm by setting is: under setting [5], 76 to 100%; under setting [7], 76 to 100%. In addition, the pest or weed control at 100 ppm under setting [6] lay in the range of 76 to 100% and the pest or weed control at 100 ppm under setting [8] lay in the range of 76 to 100%.
With `OCNc1nc(OCc2cccs2)ncc1F` [Compound 196], the pest or weed control at 25 ppm runs as follows: under setting [5], 76 to 100%; under setting [7], 76 to 100%. The pest or weed control at 100 ppm by setting is: under setting [6], 76 to 100%; under setting [8], 76 to 100%.
Turning to `CC(C)c1ccc(COc2ncc(F)c(N)n2)cc1` [Compound 197], the pest or weed control at 25 ppm reads like this: under setting [5], 51 to 75%; under setting [7], 51 to 75%. Also, the pest or weed control at 100 ppm is, setting by setting: under setting [6], 76 to 100%; under setting [8], 76 to 100%.
Consider `CCOC(=O)COC(=O)Nc1nc(OCc2cccc(F)c2)ncc1F` [Compound 199], for which the pest or weed control at 25 ppm under setting [5] was 0 to 25% and the pest or weed control at 25 ppm under setting [7] fell in the range of 51 to 75%. Besides, the pest or weed control at 100 ppm runs as follows: under setting [6], 76 to 100%; under setting [8], 76 to 100%.
As for `COc1ccc(COc2ncc(F)c(NSc3ccccc3[N+](=O)[O-])n2)cc1F` [Compound 200], the pest or weed control at 25 ppm by setting is: under setting [5], 0 to 25%; under setting [7], 0 to 25%. Besides, the pest or weed control at 100 ppm runs as follows: under setting [6], 26 to 50%; under setting [8], 0 to 25%.
As to `COc1cccc(COc2ncc(F)c(NC(=O)NCc3ccccc3F)n2)c1` [Compound 201], the pest or weed control at 25 ppm is, setting by setting: under setting [5], 0 to 25%; under setting [7], 0 to 25%. Further, the pest or weed control at 100 ppm runs as follows: under setting [6], 0 to 25%; under setting [8], 0 to 25%.
Regarding `Fc1ccc(COc2ncc(F)c(NC3CCCCC3)n2)cc1` [Compound 205], the pest or weed control at 25 ppm is, setting by setting: under setting [5], 0 to 25%; under setting [7], 0 to 25%. Further, the pest or weed control at 100 ppm under setting [6] lay in the range of 0 to 25% and the pest or weed control at 100 ppm under setting [8] fell in the range of 51 to 75%.
Consider `Cc1ccc(COc2ncc(F)c(NC(=O)Nc3ccccc3F)n2)cc1` [Compound 208], for which the pest or weed control at 25 ppm under setting [5] was 0 to 25% and the pest or weed control at 25 ppm under setting [7] fell in the range of 0 to 25%. In addition, the pest or weed control at 100 ppm runs as follows: under setting [6], 0 to 25%; under setting [8], 26 to 50%.
In the case of `Nc1nc(OCc2ccc(F)c(F)c2)ncc1F` [Compound 210], the pest or weed control at 25 ppm by setting is: under setting [5], 76 to 100%; under setting [7], 76 to 100%. The pest or weed control at 100 ppm runs as follows: under setting [6], 76 to 100%; under setting [8], 76 to 100%.
For `Nc1nc(OCc2cccc(I)c2)ncc1F` [Compound 212], the pest or weed control at 25 ppm is 76 to 100% under setting [5] and 76 to 100% under setting [7]. The pest or weed control at 100 ppm by setting is: under setting [6], 76 to 100%; under setting [8], 76 to 100%.
With `Nc1nc(OCc2cccs2)ncc1F` [Compound 213], the pest or weed control at 25 ppm is, setting by setting: under setting [5], 76 to 100%; under setting [7], 76 to 100%. In addition, the pest or weed control at 100 ppm runs as follows: under setting [6], 76 to 100%; under setting [8], 76 to 100%.
On to `COc1ccc(COc2ncc(F)c(NCO)n2)cc1F` [Compound 216], for which the pest or weed control at 25 ppm reads like this: under setting [5], 76 to 100%; under setting [7], 51 to 75%. The pest or weed control at 100 ppm under setting [6] was in the range of 76 to 100% and the pest or weed control at 100 ppm under setting [8] is 76 to 100%.
Regarding `Nc1nc(OCC2Cc3ccccc3O2)ncc1F` (centres unmarked) [Compound 219], the pest or weed control at 25 ppm fell in the range of 51 to 75% under setting [5] and 0 to 25% under setting [7]. The pest or weed control at 100 ppm is, setting by setting: under setting [6], 76 to 100%; under setting [8], 51 to 75%.
Turning to `O=C(Nc1nc(OCc2ccc(F)cc2)ncc1F)OCc1ccccc1` [Compound 220], the pest or weed control at 25 ppm lay in the range of 76 to 100% under setting [5] and 76 to 100% under setting [7]. For the same compound, the pest or weed control at 100 ppm reads like this: under setting [6], 76 to 100%; under setting [8], 76 to 100%.
`COc1ccccc1Oc1ncc(F)c(N)n1` [Compound 223]: the pest or weed control at 25 ppm was in the range of 76 to 100% under setting [5] and 76 to 100% under setting [7]. The pest or weed control at 100 ppm is 76 to 100% under setting [6] and 76 to 100% under setting [8].
Take `COc1ccc(Br)c(COc2ncc(F)c(N)n2)c1F` [Compound 224]: the pest or weed control at 25 ppm by setting is: under setting [5], 26 to 50%; under setting [7], 0 to 25%. For the same compound, the pest or weed control at 100 ppm is, setting by setting: under setting [6], 76 to 100%; under setting [8], 26 to 50%.
In the case of `CCOC(CC)Nc1nc(OCc2ccc(F)cc2)ncc1F` (centres unmarked) [Compound 227], the pest or weed control at 25 ppm reads like this: under setting [5], 76 to 100%; under setting [7], 76 to 100%. For the same compound, the pest or weed control at 100 ppm lay within 76 to 100% under setting [6] and 76 to 100% under setting [8].
On to `COc1ccccc1COc1ncc(F)c(NSc2ccccc2[N+](=O)[O-])n1` [Compound 230], for which the pest or weed control at 25 ppm is, setting by setting: under setting [5], 76 to 100%; under setting [7], 0 to 25%. The pest or weed control at 100 ppm lay within 76 to 100% under setting [6] and 0 to 25% under setting [8].
For the compound `O=C(Nc1ccccc1F)Nc1nc(OCc2cccc(F)c2)ncc1F` [Compound 231], the pest or weed control at 25 ppm is, setting by setting: under setting [5], 0 to 25%; under setting [7], 0 to 25%. The pest or weed control at 100 ppm under setting [6] lay within 0 to 25% and the pest or weed control at 100 ppm under setting [8] was 0 to 25%.
`Cc1ccc(COc2ncc(F)c(N)n2)cc1F` [Compound 232]: the pest or weed control at 25 ppm lay in the range of 76 to 100% under setting [5] and 76 to 100% under setting [7]. The pest or weed control at 100 ppm is, setting by setting: under setting [6], 76 to 100%; under setting [8], 76 to 100%.
On to `CN(C)/C=N/c1nc(OC(=O)c2c(Cl)cccc2Cl)ncc1F` [Compound 234], for which the pest or weed control at 25 ppm was in the range of 76 to 100% under setting [5] and 76 to 100% under setting [7]. Further, the pest or weed control at 100 ppm fell in the range of 76 to 100% under setting [6] and 76 to 100% under setting [8].
